In ChEMBL document CHEMBL5233278, “Recent Advances in the Medicinal Chemistry of Farnesoid X Receptor” (J Med Chem, 2021):

Tests used:
Bile acid receptor = biological target: T1, Bile acid receptor (Homo sapiens, UniProt Q96RI1); test: Agonist activity at FXR in human HeLa cells incubated for 24 hrs by Dual-Glo luciferase assay; assay type: cell-based
T1 sequence (Q96RI1 whole entry): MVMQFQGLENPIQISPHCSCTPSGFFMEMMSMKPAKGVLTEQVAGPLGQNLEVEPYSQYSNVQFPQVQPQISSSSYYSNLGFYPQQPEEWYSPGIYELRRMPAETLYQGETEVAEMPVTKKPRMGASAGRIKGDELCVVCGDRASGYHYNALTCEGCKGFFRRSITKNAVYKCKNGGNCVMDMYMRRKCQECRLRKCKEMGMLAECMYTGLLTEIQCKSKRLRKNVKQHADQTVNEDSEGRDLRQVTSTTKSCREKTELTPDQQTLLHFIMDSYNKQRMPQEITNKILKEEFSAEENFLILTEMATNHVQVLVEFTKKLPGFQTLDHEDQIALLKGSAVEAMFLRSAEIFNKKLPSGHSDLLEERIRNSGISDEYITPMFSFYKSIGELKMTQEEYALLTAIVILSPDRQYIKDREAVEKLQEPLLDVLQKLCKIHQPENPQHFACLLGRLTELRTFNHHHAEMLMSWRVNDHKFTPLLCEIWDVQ

[1] = biological target: T2, Peroxisome proliferator-activated receptor delta (Homo sapiens, UniProt Q03181); test: Agonist activity at human PPARdelta expressed in HEK293T cells incubated for 12 to 14 hrs by Dual-Glo luciferase assay; assay type: cell-based
T2 sequence (Q03181 whole entry): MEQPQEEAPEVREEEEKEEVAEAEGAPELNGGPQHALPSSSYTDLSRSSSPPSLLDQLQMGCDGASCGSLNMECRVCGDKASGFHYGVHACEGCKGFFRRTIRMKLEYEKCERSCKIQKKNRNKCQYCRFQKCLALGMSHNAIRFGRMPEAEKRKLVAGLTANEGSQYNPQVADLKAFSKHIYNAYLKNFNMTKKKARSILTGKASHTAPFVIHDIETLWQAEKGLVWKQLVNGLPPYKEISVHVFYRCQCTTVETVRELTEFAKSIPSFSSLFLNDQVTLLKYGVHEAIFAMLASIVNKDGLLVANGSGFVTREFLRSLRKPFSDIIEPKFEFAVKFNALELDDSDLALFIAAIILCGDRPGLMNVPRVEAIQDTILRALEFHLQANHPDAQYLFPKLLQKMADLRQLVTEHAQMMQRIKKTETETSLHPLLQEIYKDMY

- EC50 (Bile acid receptor): 940 nM
- EC50 [1]: 1500 nM
Compound: CC(C)c1onc(-c2c(Cl)cccc2Cl)c1COc1ccc(CNc2ccc(CC(=O)O)cc2)c(Cl)c1
